From paper PMC11229689, “In Vitro Selection of Macrocyclic L-α/D-α/β/γ-Hybrid Peptides Targeting IFN-γ/IFNGR1 Protein–Protein Interaction” (Journal of the American Chemical Society, 2024) come the findings set out here.

*1 amine or outer side, *2 acyl side, *3 side chain or, on linkers, in order; H or OH if unused. Where a SMILES comes first, the peptide text is derived from it. Bridges are numbered along the chain shown (N, C = ends). [ ]: non-standard residue; d: D form. Acbc(trans-1,3) = O=C([C@H]1C[C@H](N[*:1])C1)[*:2]; Acbc(cis-1,3) = O=C([C@H]1C[C@@H](N[*:1])C1)[*:2]; X1 = O=C([C@@H]1CCC[C@@H]1N[*:1])[*:2]

In one experiment the target is T1, Fc-tagged human IFNGR1 (Homo sapiens, UniProt P15260).
T1 construct: purchased ACROBiosystems
T1 sequence (P15260 18-489): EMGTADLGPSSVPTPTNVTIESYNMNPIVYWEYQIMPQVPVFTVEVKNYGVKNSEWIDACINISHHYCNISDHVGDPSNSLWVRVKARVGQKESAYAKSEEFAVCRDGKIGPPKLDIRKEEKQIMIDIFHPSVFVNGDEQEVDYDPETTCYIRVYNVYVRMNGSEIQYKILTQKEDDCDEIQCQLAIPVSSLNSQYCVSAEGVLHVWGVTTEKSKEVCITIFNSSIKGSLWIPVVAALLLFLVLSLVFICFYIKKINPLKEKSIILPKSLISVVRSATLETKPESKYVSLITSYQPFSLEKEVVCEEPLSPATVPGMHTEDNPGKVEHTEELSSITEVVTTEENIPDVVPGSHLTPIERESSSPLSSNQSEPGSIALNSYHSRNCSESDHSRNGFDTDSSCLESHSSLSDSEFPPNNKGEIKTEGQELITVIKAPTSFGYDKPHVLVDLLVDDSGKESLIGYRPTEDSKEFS
In words: Binding kinetics and affinity to IFNGR1 by surface plasmon resonance (SPR). The following applies: SPR, 25 °C, 1:1 binding model; for Kd: read-out: KD; for kon: single-cycle kinetics, read-out: ka. As to the method:
Binding affinities of IA1 and IA2 against IFNGR1 were evaluated by surface plasmon resonance (SPR) (Table 1 and SI Figure S6A). […] To investigate the contribution of the N-terminal [yVPβ^1RR] motif and β^1 residue in IA1, three scrambled peptides IA1s1–3 and a variant IA1β^14A were synthesized and evaluated. […] We next evaluated inhibitory activities of IA1 and IA2 against the ligand–receptor PPI between IFN-γ and IFNGR1 using AlphaLISA (Table 1 and SI Figure S7).[37] […] We also determined the serum half-lives of IA1 and IA2, considering peptidase resistance as an important factor for therapeutic peptides.[24] A sample peptide and a peptidase-resistant internal standard peptide were coincubated in human serum at 37 °C, and the relative amount of the remaining sample peptide was estimated by LC/MS. […]
Evaluation of binding affinity of peptides by surface plasmon resonance The binding affinities of selected peptides and IFNGR1 were analyzed by surface plasmon resonance (SPR) using a Biacore T200 instrument (Cytiva) at 25 °C with the following running buffer: 10 mM Tris-HCl (pH 8.0), 150 mM NaCl, 0.05% (v/v) Tween 20 , and 0.1% (v/v) DMSO. Fc-tagged IFNGR1 was immobilized on a series S sensor chip protein G (Cytiva) to a surface density of 1,200–1,600 response units following the immobilization protocols provided by Cytiva. The kinetic constants were determined by a single-cycle kinetics method by the injection of five different concentrations (twofold dilution series) of each peptide at a flow rate of 30 μL/min. The resulting sensorgrams were fitted to the standard 1:1 interaction model and analyzed using Biacore evaluation software. […]

Experiment [1] has as its target T2, IFN-γ/IFNGR1 protein–protein interaction (Homo sapiens, UniProt P15260).
T2 construct: purchased ACROBiosystems
T2 sequence (P15260 18-245 limits assumed): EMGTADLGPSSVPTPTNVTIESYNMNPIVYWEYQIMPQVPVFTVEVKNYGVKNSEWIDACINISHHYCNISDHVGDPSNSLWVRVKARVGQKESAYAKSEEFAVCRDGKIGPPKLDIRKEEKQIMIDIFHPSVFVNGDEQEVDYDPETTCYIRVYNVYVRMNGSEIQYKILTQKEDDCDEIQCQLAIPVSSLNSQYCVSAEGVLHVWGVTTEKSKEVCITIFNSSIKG
Briefly: IFNGR1 inhibition assay using AlphaLISA. The experiment is classed as biochemical. The following applies: four-parameter dose–response fit, n = 3. As to the method:
IFNGR1 inhibition assay using AlphaLISA
The inhibitory activity of peptides against IFN-γ/IFNGR1 protein–protein interaction (PPI) was determined by AlphaLISA.5 Peptides, proteins, and beads were diluted in AlphaLISA immunoassay buffer (PerkinElmer, AL000C). 3.6 μL of 5 nM Fc-tagged IFNGR1 and 3.6 μL of synthetic peptides were mixed in AlphaPlate-384 Shallow Well (PerkinElmer) and preincubated at 25 °C for 10 min. 3.6 μL of 15 nM biotin-tagged IFN-γ was then added to the mix and incubated at 25 °C for 20 min. 3.6 μL each human IgG acceptor beads (PerkinElmer) and streptavidin donor beads (PerkinElmer) were added to the above mix and incubated at 25 °C for 30 min in dark place. Emission at 615 nm was measured […]
by EnSpire Multimode Plate Reader (PerkinElmer). The fraction of bound IFN-γ/IFNGR1 was calculated by the intensity of emission in the presence of peptide divided by that in the absence of […]
peptide. […]
Puromycin. Normocin, Blasticidin, Zeocin, and Puromycin were excluded when conducting the experiments. To evaluate the cellular activity of peptides, peptide mixtures were added to 50,000 cells/well in a flat-bottom 96-well plate and pre-incubated for 30 min at 37 °C before stimulation.
Subsequently, 1 ng/mL of recombinant IFN-γ (InvivoGen) was added to each well in a final reaction volume of 200 μL, followed by incubation for 20 h at 37 °C. 20 μL of supernatants from the induced cells was added to 180 μL Q U A N T I-Blue TM solution (InvivoGen). After further incubation for 3 h at 37 °C, the expression levels of the secreted embryonic alkaline phosphatase (SEAP) were determined by reading the O.D. at 650 nm on a Tecan M1000 PRO microplate reader (Tecan Group) and normalized to the non-treated well. IC50 value was analyzed by a normalized dose-response curve fitting by using GraphPad Prism 9.
HEK-DualTM IFN-γ cells were used for the cell viability assay. 10,000 cells/well were added to each well in a flat-bottom 96-well plate. After 24 h, peptide mixtures were added to each well in a final volume of 100 μL. After further incubation for 24 h, 10 μL CCK-8 reagent (Dojindo) was added to […]

With `CC(C)[C@@H]1NC(=O)[C@@H](Cc2ccc(O)cc2)NC(=O)CSC[C@H](C(N)=O)NC(=O)[C@H](C)NC(=O)[C@H](Cc2c[nH]cn2)NC(=O)[C@H](CCCNC(=N)N)NC(=O)[C@H](CCCNC(=N)N)NC(=O)CNC(=O)[C@H]2C[C@@H](C2)NC(=O)[C@H](Cc2c[nH]cn2)NC(=O)[C@H](CC(N)=O)NC(=O)[C@H](CCCNC(=N)N)NC(=O)[C@H](CCCNC(=N)N)NC(=O)[C@@H]2CCC[C@@H]2NC(=O)[C@H](C)NC1=O` [IB2γ^19γ^2, ^AcyVAβ^1RRNHγ^2GRRHAc-NH2] ({CH2CO}-[dY]VA[X1]RRNH[Acbc(trans-1,3)]GRRHA[dC]-NH2; thioether N-15), on Fc-tagged human IFNGR1, the equilibrium dissociation constant (Kd) came out at 68 ± 12 nM and the kon was found to be 75000 ± 25000 M⁻¹ s⁻¹. In experiment [1], half-maximal inhibition (IC50) required 680 ± 50 nM.
In the case of `CC(C)[C@@H]1NC(=O)[C@@H](Cc2ccc(O)cc2)NC(=O)CSC[C@H](C(N)=O)NC(=O)[C@H](CCCNC(=N)N)NC(=O)[C@H](CO)NC(=O)[C@H](CCCNC(=N)N)NC(=O)[C@H](Cc2c[nH]cn2)NC(=O)CNC(=O)[C@H]2C[C@H](C2)NC(=O)[C@H](Cc2c[nH]cn2)NC(=O)[C@H](CC(N)=O)NC(=O)[C@H](CCCNC(=N)N)NC(=O)[C@H](CCCNC(=N)N)NC(=O)[C@H](C)NC(=O)[C@H](C)NC1=O` [IB1β^14A, ^AcyVAA RRNHγ^1GHRSRc-NH2] ({CH2CO}-[dY]VAARRNH[Acbc(cis-1,3)]GHRSR[dC]-NH2; thioether N-15), at Fc-tagged human IFNGR1, the Kd is greater than 10000 nM. Further, in experiment [1], the IC50 was greater than 100000 nM.
Take `CC(C)[C@@H]1NC(=O)[C@@H](Cc2ccc(O)cc2)NC(=O)CSC[C@H](C(N)=O)NC(=O)[C@H](C)NC(=O)[C@H](CO)NC(=O)[C@H](CCCNC(=N)N)NC(=O)[C@H](CCCNC(=N)N)NC(=O)CNC(=O)[C@H]2C[C@@H](C2)NC(=O)[C@H](Cc2c[nH]cn2)NC(=O)[C@H](CC(N)=O)NC(=O)[C@H](CCCNC(=N)N)NC(=O)[C@H](CCCNC(=N)N)NC(=O)[C@@H]2CCC[C@@H]2NC(=O)[C@H](C)NC1=O` [IB3γ^19γ^2, ^AcyVAβ^1RRNHγ^2GRRSAc-NH2] ({CH2CO}-[dY]VA[X1]RRNH[Acbc(trans-1,3)]GRRSA[dC]-NH2; thioether N-15): on Fc-tagged human IFNGR1, the equilibrium dissociation constant (Kd) was determined as 49 ± 7 nM and the kon was 470000 ± 320000 M⁻¹ s⁻¹. Also, in experiment [1], it took 350 ± 30 nM to reach half-maximal inhibition (IC50).
As for `CC(C)[C@@H]1NC(=O)[C@@H](Cc2ccc(O)cc2)NC(=O)CSC[C@H](C(N)=O)NC(=O)[C@H](CC(N)=O)NC(=O)[C@H](CO)NC(=O)[C@H](CCCNC(=N)N)NC(=O)[C@H]2C[C@H](C2)NC(=O)[C@H](Cc2c[nH]cn2)NC(=O)[C@H](CC(N)=O)NC(=O)[C@H]([C@@H](C)O)NC(=O)[C@H](Cc2c[nH]cn2)NC(=O)[C@H](CCCNC(=N)N)NC(=O)[C@H](CCCNC(=N)N)NC(=O)[C@@H]2CCC[C@@H]2NC(=O)[C@@H]2CCCN2C1=O` [IA1, ^AcyVPβ^1RRHTNHγ^1RSNc-NH2] ({CH2CO}-[dY]VP[X1]RRHTNH[Acbc(cis-1,3)]RSN[dC]-NH2; thioether N-15), on Fc-tagged human IFNGR1, the Kd came to 87 ± 2 nM and the kon was found to be 180000 M⁻¹ s⁻¹. The midpoint of inhibition in experiment [1], the IC50, lay at 87 ± 15 nM.
With `CC(C)[C@@H]1NC(=O)[C@@H](Cc2ccc(O)cc2)NC(=O)CSC[C@H](C(N)=O)NC(=O)[C@H](CCCNC(=N)N)NC(=O)[C@H](CO)NC(=O)[C@H](CCCNC(=N)N)NC(=O)[C@H](Cc2c[nH]cn2)NC(=O)CNC(=O)[C@H]2C[C@H](C2)NC(=O)[C@H](Cc2c[nH]cn2)NC(=O)[C@H](CC(N)=O)NC(=O)[C@H](CCCNC(=N)N)NC(=O)[C@H](CCCNC(=N)N)NC(=O)[C@@H]2CCC[C@@H]2NC(=O)[C@H](C)NC1=O` [IB1, ^AcyVAβ^1RRNHγ^1GHRSRc-NH2] ({CH2CO}-[dY]VA[X1]RRNH[Acbc(cis-1,3)]GHRSR[dC]-NH2; thioether N-15), on Fc-tagged human IFNGR1, the dissociation constant Kd came to 11 nM and the kon was found to be 650000 ± 20000 M⁻¹ s⁻¹. In experiment [1], this compound yielded an IC50 of 12 ± 3 nM.
`CC(C)[C@@H]1NC(=O)[C@@H](Cc2ccc(O)cc2)NC(=O)CSC[C@H](C(N)=O)NC(=O)[C@H](C)NC(=O)[C@H](CO)NC(=O)[C@H](CCCNC(=N)N)NC(=O)[C@H](CCCNC(=N)N)NC(=O)CNC(=O)[C@H]2C[C@H](C2)NC(=O)[C@H](Cc2c[nH]cn2)NC(=O)[C@H](CC(N)=O)NC(=O)[C@H](CCCNC(=N)N)NC(=O)[C@H](CCCNC(=N)N)NC(=O)[C@@H]2CCC[C@@H]2NC(=O)[C@H](C)NC1=O` [IB3, ^AcyVAβ^1RRNHγ^1GRRSAc-NH2] ({CH2CO}-[dY]VA[X1]RRNH[Acbc(cis-1,3)]GRRSA[dC]-NH2; thioether N-15): at Fc-tagged human IFNGR1, the Kd stood at 9.5 ± 0.7 nM and the kon turned out to be 930000 ± 420000 M⁻¹ s⁻¹. This compound yielded a 50% inhibitory concentration (IC50) in experiment [1] of 12 nM.
As to `CC(C)[C@@H]1NC(=O)[C@@H](Cc2ccc(O)cc2)NC(=O)CSC[C@H](C(N)=O)NC(=O)[C@H](CC(N)=O)NC(=O)[C@H](Cc2c[nH]cn2)NC(=O)[C@H](CCCNC(=N)N)NC(=O)[C@H]2C[C@@H](C2)NC(=O)[C@H]([C@@H](C)O)NC(=O)[C@H](Cc2c[nH]cn2)NC(=O)[C@@H]2CCCN2C(=O)[C@H](CO)NC(=O)[C@H](CCCNC(=N)N)NC(=O)[C@H](CCCNC(=N)N)NC(=O)[C@@H]2CCC[C@@H]2NC(=O)[C@@H]2CCCN2C1=O` [IB5, ^AcyVPβ^1RRSPHTγ^2RHNc-NH2] ({CH2CO}-[dY]VP[X1]RRSPHT[Acbc(trans-1,3)]RHN[dC]-NH2; thioether N-15), on Fc-tagged human IFNGR1, the Kd came to 130 ± 20 nM and the kon came out at 17000 ± 5000 M⁻¹ s⁻¹. Half-maximal inhibition in experiment [1] (IC50) required 220 ± 10 nM.
